Non-standard residues stand in square brackets, D forms with d. No end group written: not given here. *: point of attachment. FITC = O=C1OC2(c3ccc(O)cc3Oc3cc(O)ccc32)c2ccc(NC(=S)*)cc21; pY = N[C@@H](Cc1ccc(OP(=O)(O)O)cc1)C(=O)O

The test system of the test is GVHD and B-ALL-luc tumor cells. Description: Allo-HSCT GVHD/GVL model with donor T cells transduced with SLP76pTYR-pCherry virus. Type of test: in vivo, BALB/c mice. The note with it: murine allo-HSCT major mismatch model. The protocol: GVHD and GVL studies: Recipient BALB/c mice (MHC haplotype d) as recipients were lethally irradiated with 800 cGy total in two split doses of 400cGy. Bone marrow cells were harvested from mouse legs, and total bone marrow cells were incubated with CD90.2 beads, using 100 ul of beads per mouse according to manufacturer protocols. NK cells were depleted and by DX5 beads, and CD122+ cells with anti PE beads. Recipient mice were injected intravenously with 10×10^6 T cell-depleted bone marrow (TCDBM) cells, with or without donor T cells, either 1×10^6 or 2×10^6 FACS-sorted CD8^+, CD4^+ T cells, or CD8^+ and CD4^+ cells mixed at a 1:1 ratio from WT or SLP76 Y145FKI mice. For GVL experiments, primary B cell acute lymphoblastic leukemia (B-ALL, syngeneic to BALB/c and allogeneic to C57BI/6) blasts were transduced with luciferase as described previously (Cheng et al., 2016), and 2×10^5 luciferase-expressing B-ALL-luc cells were used per recipient mouse unless otherwise specified. […] The bioluminescence data were analyzed and quantified with Living Image Software (Xenogen) and Igor Pro (Wave Metrics, Lake Oswego, OR). Recipient animals were evaluated for clinical score 2-3 times per week by a scoring system that sums changes in 6 clinical parameters: (1) weight loss, (2) posture, (3) activity, (4) fur texture, (5) diarrhea and (6) skin integrity (Cooke et al., 1996). […]

On to “FITC Dye ^132NEEEEAPVEDDADpYEPPPSNDEEA^155-TAT ({FITC}-NEEEEAPVEDDAD[pY]EPPPSNDEEAGRKKRRQRRRPQ) [SLP76pTYR]”, for which the “GVHD and GVL outcome (summary statement)” value was “tumor clearance without inducing GVHD”. Also, the “GVHD and GVL outcome (summary statement)” value (listed as SLP76145pTYR) was “significantly reduced GVHD pathophysiology but maintained GVL function”.

The record behind these values is patent publication US12729381B2, “Methods and compositions for inactivating interleukin-2-inducible t-cell kinase (ITK)” (priority 2020, dated 2026).
